Test results as given in US5545547A, “Enzymes as agricultural chemical adjuvants” (priority 1992, dated 1996).

Key:
Format in all cases: in vivo
Turnip = experiment: Greenhouse multispecies herbicide screen with/without P. mendocina enzyme; settings: one week after treatment
How it was run: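 In the greenhouse, herbicides went on at the recommended dose, 10% or 40% of it, with or without P. mendocina ATCC 53552 enzyme at 0.5 (HE) or 0.05 mg/ml (LE), sprayed at 40 gallons/acre at pH 10 in 100 mm sodium phosphate. Percent plants with chlorosis, necrosis or lower vigor was rated at 6 and 12 days; phytotoxicity is their average. In a variant, enzyme went on 2 h before the herbicide, rated at two weeks.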

[1] = test system: Beefsteak Tomato seedlings; experiment: HYVAR uptake by whole plants, effect of macerating enzymes (GC219); set-up: key: -=No phytotoxicity; +=Some phytotoxicity seen in area of treatment.; ++=Phytotoxicity seen outside area of treatment
Procedure: 13-16 day old Beefsteak Tomato seedlings were treated with solutions of HYVAR herbicides [5-bromo-6-methyl-3-(1-methylpropyl)-2,4-(1H,3H)-pyrimidinedione] and GC219. Solutions of Hyvar and GC219 were made up on DI H2 O and 1% ethanol and adjusted with 0.1N HCL to a final pH of 4.0. 10 ul of solution was applied to each cotyledon and 15 ul to each secondary pentafoliate leaflet. 10 tomato seedlings were used for each test solutions. Observations were made daily after treatment for 4 days.
HYVAR herbicide [5-bromo-6-methyl-3-(1-methylpropyl)-2,4-(1H,3H)-pyrimidinedione] was diluted 1:200 or 1:400 for each experiment.

Giant Fox Tail [2] = experiment: Greenhouse multispecies herbicide screen with/without P. mendocina enzyme; settings: HYVAR 18%, two weeks after treatment
Giant Fox Tail [3] = experiment: as above
Procedure: Several plant species including weeds and crops are used in these experiments.
A number of herbicides from various chemical classes were compared in a multispecies screen for percent chlorosis, necrosis and vigor reduction both with and without application of the enzyme from Pseudomonas mendocina ATCC 53552 described earlier. […] Two different enzyme concentrations were used: 0.5 mg/ml (HE) and 0.05 mg/ml (LE) and applied at the rate of 40 gallons/acre. All spraying solutions were at pH 10 and contained 100 mm sodium phosphate each. Ratings were done at 6 and 12 days after the treatment. All the experiments were carried out in a greenhouse.
Chlorosis--figures represent percent of plants showing chlorosis.
Necrosis--figures represent percent of plants showing necrosis.
Vigor--figures represent percent of plants showing decreased vigor.
Phytotoxicity--figures represent the average percent of chlorosis, necrosis, and vigor for a given sample.

[4] = HYVAR 10% dose, High Enzyme, one week after treatment
[5] = HYVAR 10% dose, Low Enzyme, one week after treatment
[6] = HYVAR 10% dose, No Enzyme, one week after treatment
[7] = HYVAR 18%, High Enzyme, two weeks after treatment
[8] = HYVAR 18%, Low Enzyme, two weeks after treatment
[9] = HYVAR 18%, No Enzyme, two weeks after treatment
[10] = HYVAR 40% dose, High Enzyme, one week after treatment
[11] = HYVAR 40% dose, Low Enzyme, one week after treatment
[12] = HYVAR 40% dose, No Enzyme, one week after treatment
[13] = HYVAR 100% dose, No Enzyme, one week after treatment

CCC(C)n1c(=O)[nH]c(C)c(Br)c1=O (stereo not drawn) [HYVAR, 5-bromo-6-methyl-3-(1-methylpropyl)-2,4-(1H,3H)-pyrimidinedione]
CK (chlorosis) (Turnip; HYVAR 10% dose, High Enzyme): 50% | NEC (necrosis) (Turnip; HYVAR 10% dose, High Enzyme): 85% | PHY (phytotoxicity) (Turnip; HYVAR 10% dose, High Enzyme): 73% | VIG (vigor) (Turnip; HYVAR 10% dose, High Enzyme): 83% | CK (chlorosis) (Turnip; HYVAR 10% dose, Low Enzyme): 70% | NEC (necrosis) (Turnip; HYVAR 10% dose, Low Enzyme): 90% | PHY (phytotoxicity) (Turnip; HYVAR 10% dose, Low Enzyme): 84% | VIG (vigor) (Turnip; HYVAR 10% dose, Low Enzyme): 93% | CK (chlorosis) (Turnip; HYVAR 10% dose, No Enzyme): 70% | NEC (necrosis) (Turnip; HYVAR 10% dose, No Enzyme): 93% | PHY (phytotoxicity) (Turnip; HYVAR 10% dose, No Enzyme): 84% | VIG (vigor) (Turnip; HYVAR 10% dose, No Enzyme): 90% | CK (chlorosis) (Turnip; HYVAR 40% dose, High Enzyme): 97% | NEC (necrosis) (Turnip; HYVAR 40% dose, High Enzyme): 97% | PHY (phytotoxicity) (Turnip; HYVAR 40% dose, High Enzyme): 97% | VIG (vigor) (Turnip; HYVAR 40% dose, High Enzyme): 98% | CK (chlorosis) (Turnip; HYVAR 40% dose, Low Enzyme): 93% | NEC (necrosis) (Turnip; HYVAR 40% dose, Low Enzyme): 95% | PHY (phytotoxicity) (Turnip; HYVAR 40% dose, Low Enzyme): 94% | VIG (vigor) (Turnip; HYVAR 40% dose, Low Enzyme): 95% | CK (chlorosis) (Turnip; HYVAR 40% dose, No Enzyme): 65% | NEC (necrosis) (Turnip; HYVAR 40% dose, No Enzyme): 73% | PHY (phytotoxicity) (Turnip; HYVAR 40% dose, No Enzyme): 74% | VIG (vigor) (Turnip; HYVAR 40% dose, No Enzyme): 85% | CK (chlorosis) (Turnip; HYVAR 100% dose, No Enzyme): 100% | NEC (necrosis) (Turnip; HYVAR 100% dose, No Enzyme): 95% | PHY (phytotoxicity) (Turnip; HYVAR 100% dose, No Enzyme): 95% | VIG (vigor) (Turnip; HYVAR 100% dose, No Enzyme): 90% | PHYTOTOXICITY RATING ([1]; HYVAR (1:400 dilution), Day 2): - | PHYTOTOXICITY RATING ([1]; HYVAR (1:400 dilution), Day 3): - | PHYTOTOXICITY RATING ([1]; HYVAR alone (1:200 dilution), Day 1): - | PHYTOTOXICITY RATING ([1]; HYVAR alone (1:200 dilution), Day 2): + | PHYTOTOXICITY RATING ([1]; first experiment (1:200), HYVAR + 6.28 mg/ml GC219, Day 1): + | PHYTOTOXICITY RATING ([1]; first experiment (1:200), HYVAR + 6.28 mg/ml GC219, Day 2): ++ | PHYTOTOXICITY RATING ([1]; second experiment (1:400), HYVAR + 6.28 mg/ml GC219, Day 2): + | PHYTOTOXICITY RATING ([1]; second experiment (1:400), HYVAR + 6.28 mg/ml GC219, Day 3): ++ | PHYTOTOXICITY RATING ([1]; second experiment (1:400), HYVAR + 12.6 mg/ml GC219, Day 2): ++ | PHYTOTOXICITY RATING ([1]; second experiment (1:400), HYVAR + 12.6 mg/ml GC219, Day 3): ++ | CHL (chlorosis) (Giant Fox Tail [2]; High Enzyme): 75% | NEC (necrosis) (Giant Fox Tail [2]; Low Enzyme): 73% | VIG (vigor) (Giant Fox Tail [2]; Low Enzyme): 73% | CHL (chlorosis) (Giant Fox Tail [3]; [4]): 18% | NEC (necrosis) (Giant Fox Tail [3]; [4]): 18% | PHY (phytotoxicity) (Giant Fox Tail [3]; [4]): 22% | VIG (vigor) (Giant Fox Tail [3]; [4]): 30% | CHL (chlorosis) (Giant Fox Tail [3]; [5]): 50% | NEC (necrosis) (Giant Fox Tail [3]; [5]): 30% | PHY (phytotoxicity) (Giant Fox Tail [3]; [5]): 43% | VIG (vigor) (Giant Fox Tail [3]; [5]): 50% | CHL (chlorosis) (Giant Fox Tail [3]; [6]): 40% | NEC (necrosis) (Giant Fox Tail [3]; [6]): 30% | PHY (phytotoxicity) (Giant Fox Tail [3]; [6]): 40% | VIG (vigor) (Giant Fox Tail [3]; [6]): 50% | NEC (necrosis) (Giant Fox Tail [3]; [7]): 75% | PHY (phytotoxicity) (Giant Fox Tail [3]; [7]): 75% | VIG (vigor) (Giant Fox Tail [3]; [7]): 75% | CHL (chlorosis) (Giant Fox Tail [3]; [8]): 73% | PHY (phytotoxicity) (Giant Fox Tail [3]; [8]): 73% | CHL (chlorosis) (Giant Fox Tail [3]; [9]): 65% | NEC (necrosis) (Giant Fox Tail [3]; [9]): 63% | PHY (phytotoxicity) (Giant Fox Tail [3]; [9]): 64% | VIG (vigor) (Giant Fox Tail [3]; [9]): 63% | CHL (chlorosis) (Giant Fox Tail [3]; [10]): 38% | NEC (necrosis) (Giant Fox Tail [3]; [10]): 50% | PHY (phytotoxicity) (Giant Fox Tail [3]; [10]): 30% | VIG (vigor) (Giant Fox Tail [3]; [10]): 63% | CHL (chlorosis) (Giant Fox Tail [3]; [11]): 43% | NEC (necrosis) (Giant Fox Tail [3]; [11]): 65% | PHY (phytotoxicity) (Giant Fox Tail [3]; [11]): 57% | VIG (vigor) (Giant Fox Tail [3]; [11]): 63% | CHL (chlorosis) (Giant Fox Tail [3]; [12]): 50% | NEC (necrosis) (Giant Fox Tail [3]; [12]): 38% | PHY (phytotoxicity) (Giant Fox Tail [3]; [12]): 48% | VIG (vigor) (Giant Fox Tail [3]; [12]): 55% | CHL (chlorosis) (Giant Fox Tail [3]; [13]): 60% | NEC (necrosis) (Giant Fox Tail [3]; [13]): 60% | PHY (phytotoxicity) (Giant Fox Tail [3]; [13]): 65% | VIG (vigor) (Giant Fox Tail [3]; [13]): 75%
